4 compounds from patent publication US20100272699A1, “MC-1R, MC-2R, and/or µ OPIOID RECEPTORS STIMULATION” (BASF BEAUTY CARE SOLUTIONS FRANCE S.A.S., priority 2007, published 2010) can be followed below.

Format in all cases: cell-based, human
For one assay, the system named is MC-1R. The assay is described as follows: RT-PCR of MC-1R mRNA in keratinocytes put in contact with actives. The following applies: for stimulation of mRNA synthesis of the 3 receptors (MC-1R): positive controls in keratinocytes: TGF-β 1 ng/ml, TNF-α 100 ng/mL, IL-1α 50 pg/ml, quantitative RT-PCR (x2 or x.08 for the 3 inducers). The source says: (§1) In particular, the extracts are obtained by macerating plants (preferably roots, rhizomes, stems, bark, flowers, fruits, seeds, germs, or leaves) at 1-10% (p/p), usually 1-5% in a solvent or a mixture of solvents, usually a mixture of water and alcohol, glycol, or polyol (such as ethanol, glycerol, butylene glycol and other glycols, xylitol, etc.) 100/0 to 0/100, and preferably in water. The extracts obtained are then filtered or distilled in order to recover the soluble portion, which is then filtered, preferably at 0.45 μm. Biotechnological hydrolysates are obtained via the fermentation of plant extracts in the presence of microorganisms usually from the family of lactic bacteria, in particular bactobacillus plantarum, or paracasei, and bifidobacterium, in particular longum or Saccharomyces. These hydrolysates are then filtered, preferably to 0.45 μm, in order to obtain the active components.
(§2) The characterized molecules are prepared via dissolution in a solvent, usually DMSO, ethanol, glycol, and in particular DMSO at a concentration of 0.1%.
(§3) The active components are tested for keratinocytes after dissolution in the culturing environment: usually between 0.1% and 2% (v/v) for plants and biotechnological hydrolysates and in particular from 0.5% to 1% and usually between 0.001% and 0.01% for characterized molecules. The present results are obtained with 1% in the culturing environment for plant extracts and biotechnological hydrolysates, and with 0.01% for characterized molecules.
(§4) Keratinocytes taken from plastic surgery on normal adults through enzymatic digestion have been amplified in a specific environment for keratinocytes and then seeded, for example at 50,000 per cm^2 in 24-well plates and cultivated in a single layer in a definite no-serum environment. Upon convergence, the cells are put in contact with diluted actives in the culturing environment, usually for 24 hours.
(§5) In parallel, an untreated control (environment alone) and 3 positive controls (TGF-β at 1 ng/ml, IL-1α at 50 pg/ml and TNF-α at 100 ng/mL) are usually carried out, for example on the same cultivation plate. TGF-β at 1 ng/ml, TNF-α at 100 ng/mL, and IL-1α at 50 pg/ml were previously tested and stimulation of mRNA synthesis of the 3 receptors induced by these 3 cytokins at these concentrations was verified through an analysis of mRNA, for example by quantatitive RT-PCR (x2 or x.08 for the 3 inducers). […]
(§6) The parameters of amplification have usually been the following: The technique of RT-PCR in real time is conducted with the “Quanti Tect SYBR Green RT-PCR” kit (Qiagen, France) on wells containing mRNA, in an OPTICON thermocycler, which carries out cycles of amplification. […] At the end of each cycle, fluorescence, which is proportional to the number of fragments amplified, is read. […]

Another assay concerns μ opioid R. The experiment in a line: RT-PCR of μ opioid R mRNA in keratinocytes put in contact with actives. The following applies: for stimulation of mRNA synthesis of the 3 receptors (μ opioid R): positive controls in keratinocytes: TGF-β 1 ng/ml, TNF-α 100 ng/mL, IL-1α 50 pg/ml, quantitative RT-PCR (x2 or x.08 for the 3 inducers).
Text: as §1, §2, §3, §4, §5, §6

Another assay has as its system MC-2R. The experiment in a line: RT-PCR of MC-2R mRNA in keratinocytes put in contact with actives. The settings on record: for stimulation of mRNA synthesis of the 3 receptors (MC-2R): positive controls in keratinocytes: TGF-β 1 ng/ml, TNF-α 100 ng/mL, IL-1α 50 pg/ml, quantitative RT-PCR (x2 or x.08 for the 3 inducers).
Text: as §1, §2, §3, §4, §5, §6

The next assay deals with POMC. The assay is described as follows: RT-PCR of POMC mRNA in keratinocytes put in contact with actives. The settings on record: mRNA vs untreated control, relative to actin, 24 hours, 1% plant extracts and biotechnological hydrolysates, 0.01% characterized molecules.
Text: as §1, with “components. […]” for “components.”
as §6

Where [1] appears, read: mRNA vs untreated control, relative to actin, keratinocytes, 24 hours, 1% plant extracts and biotechnological hydrolysates, 0.01% characterized molecules.

Regarding “IL-1α: cytokine used as positive control at 50 pg/ml”, the “stimulation of mRNA synthesis of the 3 receptors (MC-1R)” value (shortened to “stimulation of mRNA synthesis … (MC-1R)”) in the assay on MC-1R was “stimulation”. In the assay with μ opioid R, the “stimulation of mRNA synthesis of the 3 receptors (μ opioid R)” value (shortened to “stimulation … (μ opioid R)”) is “stimulation”. Besides, the “stimulation of mRNA synthesis of the 3 receptors (MC-2R)” value (from here on “stimulation of mRNA synthesis … (MC-2R)”) in the assay on MC-2R is given as “stimulation”.

For the compound TNF-α, the “stimulation of mRNA synthesis … (MC-1R)” value with MC-1R is “stimulation”. For the same compound, in the assay with μ opioid R, the “stimulation … (μ opioid R)” value is “stimulation”. In the assay with MC-2R, the “stimulation of mRNA synthesis … (MC-2R)” value is on record as “stimulation”.

Turning to TGF-β, in the assay on MC-1R, the “stimulation of mRNA synthesis … (MC-1R)” value is given as “stimulation”. Besides, the “stimulation … (μ opioid R)” value in the assay with μ opioid R is “stimulation”. For the same compound, the “stimulation of mRNA synthesis … (MC-2R)” value in the assay on MC-2R is listed as “stimulation”.

On to `CC1=CC(=O)C2=C(C)CC(OC(=O)Cc3ccccc3)C3C(C)C(=O)OC3C12` (stereo not shown) [phenylacetic acid 3,6,9-trimethyl-2,7-dioxo-2,3,3a,4,5,7,9a,9b-octahydro-azuleno[4,5-b]furan-4-yl], for which the “POMC Control X:” value in the assay on POMC worked out at 1 Control X. Also, the “MC-1R Control X:” value with MC-1R (setting [1]) is listed as 20.0 Control X. The “μ opioid R Control X:” value in the assay on μ opioid R (setting [1]) is reported as 1.0 Control X. The “MC-2R Control X:” value in the assay with MC-2R (setting [1]) was determined as 20.0 Control X.
